Where two headings read alike, the source gives them in different places.
Key:
Type in all cases: cell-based
[1] = tested on: recombinant NL4-3 virus (Renilla luciferase) in MT-2 cells; assay: HIV cell culture assay (antiviral activity, luciferase readout)
How it was run: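 Antiviral EC50 was derived via the median effect equation from luciferase signal. The signal came from MT-2 cultures infected for 4–5 days with a nef-deleted, Renilla luciferase-expressing NL4-3 reporter virus (made in 293T cells) in the presence of compound dilutions.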

[2] = Compound cytotoxicity, XTT-based colorimetric assay; details: human; uninfected MT2 cells, day 4, XTT
How it was run: (§1)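 Run under the antiviral-assay protocol but without virus. Viability was read on day 4 and CC50 values were derived from the readout.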

uninfected MT2 cells = assay: as above; details: day 4, XTT
How it was run: as §1

Row | Structure (SMILES) | EC50 ([1]; Renilla, NL43) [pM] | CC50 at 4 days [2] [pM] | EC50 ([1]; MT-2 cells infected for 4-5 days with recombinant NL4-3 Renilla luciferase virus, luciferase activity, read-out: EC50) [pM] | CC50 (uninfected MT2 cells) [pM]
1 | Cc1nc(C)c(C)c(-c2ccc3c(=O)n(-c4ccc(Cl)c5c(NS(=O)(=O)C6CC6)nn(CC(F)F)c45)c([C@H](Cc4cc(F)cc(F)c4)NC(=O)Cn4nc(C(F)F)c5c4C(F)(F)[C@@H]4C[C@H]54)nc3c2)n1 (atropisomer, axis not shown; (P)) [Example 92, N—((S)-1-((3P)-3-(4-chloro-3-(cyclopropanesulfonamido)-1-(2,2-difluoroethyl)-1H-indazol-7-yl)-4-oxo-7-(2,5,6-trimethylpyrimidin-4-yl)-3,4-dihydroquinazolin-2-yl)-2-(3,5-difluorophenyl)ethyl)-2-((3bS,4aR)-3-(difluoromethyl)-5,5-difluoro-3b,4,4a,5-tetrahydro-1H-cyclopropa[3,4]cyclopenta[1,2-c]pyrazol-1-yl)acetamide] | 100 | > 500000 |  | 
2 | CCc1ccnc(-c2ccc3c(=O)n(-c4ccc(Cl)c5c(NS(=O)(=O)C6CC6)nn(CC(F)F)c45)c([C@H](Cc4cc(F)cc(F)c4)NC(=O)Cn4nc(C(F)F)c5c4C(F)(F)[C@@H]4C[C@H]54)nc3c2)n1 (atropisomer, axis not shown; (P)) [Example 93, N—((S)-1-((3P)-3-(4-chloro-3-(cyclopropanesulfonamido)-1-(2,2-difluoroethyl)-1H-indazol-7-yl)-7-(4-ethylpyrimidin-2-yl)-4-oxo-3,4-dihydroquinazolin-2-yl)-2-(3,5-difluorophenyl)ethyl)-2-((3bS,4aR)-3-(difluoromethyl)-5,5-difluoro-3b,4,4a,5-tetrahydro-1H-cyclopropa[3,4]cyclopenta[1,2-c]pyrazol-1-yl)acetamide] | 180 | > 500000 |  | 
3 | CCc1cc(-c2ccc3c(=O)n(-c4ccc(Cl)c5c(NS(=O)(=O)C6CC6)nn(CC(F)F)c45)c([C@H](Cc4cc(F)cc(F)c4)NC(=O)Cn4nc(C(F)F)c5c4C(F)(F)[C@@H]4C[C@H]54)nc3c2)nc(C)n1 (atropisomer, axis not shown; (P)) [Example 94, N—((S)-1-((3P)-3-(4-chloro-3-(cyclopropanesulfonamido)-1-(2,2-difluoroethyl)-1H-indazol-7-yl)-7-(6-ethyl-2-methylpyrimidin-4-yl)-4-oxo-3,4-dihydroquinazolin-2-yl)-2-(3,5-difluorophenyl)ethyl)-2-((3bS,4aR)-3-(difluoromethyl)-5,5-difluoro-3b,4,4a,5-tetrahydro-1H-cyclopropa[3,4]cyclopenta[1,2-c]pyrazol-1-yl)acetamide] | 130 | > 500000 |  | 
4 | CS(=O)(=O)c1cccnc1-c1ccc2c(=O)n(-c3ccc(Cl)c4c(NS(=O)(=O)C5CC5)nn(CC(F)F)c34)c([C@H](Cc3cc(F)cc(F)c3)NC(=O)Cn3nc(C(F)F)c4c3C(F)(F)[C@@H]3C[C@H]43)nc2c1 (atropisomer, axis not shown; (P)) [Example 95, N—((S)-1-((3P)-3-(4-chloro-3-(cyclopropanesulfonamido)-1-(2,2-difluoroethyl)-1H-indazol-7-yl)-7-(3-(methylsulfonyl)pyridin-2-yl)-4-oxo-3,4-dihydroquinazolin-2-yl)-2-(3,5-difluorophenyl)ethyl)-2-((3bS,4aR)-3-(difluoromethyl)-5,5-difluoro-3b,4,4a,5-tetrahydro-1H-cyclopropa[3,4]cyclopenta[1,2-c]pyrazol-1-yl)acetamide] | 53 | > 500000 |  | 
5 | Cc1nccc(-c2ccc3c(=O)n(-c4ccc(Cl)c5c(NS(C)(=O)=O)nn(C)c45)c([C@H](Cc4cc(F)cc(F)c4)NC(=O)Cn4nc(C(F)F)c5c4C(F)(F)[C@@H]4C[C@H]54)nc3c2)n1 [Example 10, N—((S)-1-((3P)-3-(4-chloro-1-methyl-3-(methylsulfonamido)-1H-indazol-7-yl)-7-(2-methylpyrimidin-4-yl)-4-oxo-3,4-dihydroquinazolin-2-yl)-2-(3,5-difluorophenyl)ethyl)-2-((3bS,4aR)-3-(difluoromethyl)-5,5-difluoro-3b,4,4a,5-tetrahydro-1H-cyclopropa[3,4]cyclopenta[1,2-c]pyrazol-1-yl)acetamide] | 42 | > 500000 |  | 
6 | CN(c1cccc(-c2ccc3c(=O)n(-c4ccc(Cl)c5c(NS(C)(=O)=O)nn(C)c45)c([C@H](Cc4cc(F)cc(F)c4)NC(=O)Cn4nc(C(F)F)c5c4C(F)(F)[C@@H]4C[C@H]54)nc3c2)c1)S(C)(=O)=O [Example 28, N—((S)-1-((3P)-3-(4-chloro-1-methyl-3-(methylsulfonamido)-1H-indazol-7-yl)-7-(3-(N-methylmethylsulfonamido)phenyl)-4-oxo-3,4-dihydroquinazolin-2-yl)-2-(3,5-difluorophenyl)ethyl)-2-((3bS,4aR)-3-(difluoromethyl)-5,5-difluoro-3b,4,4a,5-tetrahydro-1H-cyclopropa[3,4]cyclopenta[1,2-c]pyrazol-1-yl)acetamide] | 220 | > 500000 |  | 
7 | CN(c1ccc(-c2ccc3c(=O)n(-c4ccc(Cl)c5c(NS(C)(=O)=O)nn(C)c45)c([C@H](Cc4cc(F)cc(F)c4)NC(=O)Cn4nc(C(F)F)c5c4C(F)(F)[C@@H]4C[C@H]54)nc3c2)cc1)S(C)(=O)=O [Example 29, N—((S)-1-((3P)-3-(4-chloro-1-methyl-3-(methylsulfonamido)-1H-indazol-7-yl)-7-(4-(N-methylmethylsulfonamido)phenyl)-4-oxo-3,4-dihydroquinazolin-2-yl)-2-(3,5-difluorophenyl)ethyl)-2-((3bS,4aR)-3-(difluoromethyl)-5,5-difluoro-3b,4,4a,5-tetrahydro-1H-cyclopropa[3,4]cyclopenta[1,2-c]pyrazol-1-yl)acetamide] | 290 | > 500000 |  | 
8 | Cn1nc(NS(C)(=O)=O)c2c(Cl)ccc(-n3c([C@H](Cc4cc(F)cc(F)c4)NC(=O)Cn4nc(C(F)F)c5c4C(F)(F)[C@@H]4C[C@H]54)nc4cc(-c5ccccc5S(=O)(=O)C(C)(C)C)ccc4c3=O)c21 [Example 32, N—((S)-1-(7-(2-(tert-butylsulfonyl)phenyl)-(3P)-3-(4-chloro-1-methyl-3-(methylsulfonamido)-1H-indazol-7-yl)-4-oxo-3,4-dihydroquinazolin-2-yl)-2-(3,5-difluorophenyl)ethyl)-2-((3bS,4aR)-3-(difluoromethyl)-5,5-difluoro-3b,4,4a,5-tetrahydro-1H-cyclopropa[3,4]cyclopenta[1,2-c]pyrazol-1-yl)acetamide] | 110 | > 500000 |  | 
9 | Cc1cc(C(F)(F)F)nc(-c2ccc3c(=O)n(-c4ccc(Cl)c5c(NS(C)(=O)=O)nn(C)c45)c([C@H](Cc4cc(F)cc(F)c4)NC(=O)Cn4nc(C(F)F)c5c4C(F)(F)[C@@H]4C[C@H]54)nc3c2)n1 [Example 53, N—((S)-1-((3P)-3-(4-chloro-1-methyl-3-(methylsulfonamido)-1H-indazol-7-yl)-7-(4-methyl-6-(trifluoromethyl)pyrimidin-2-yl)-4-oxo-3,4-dihydroquinazolin-2-yl)-2-(3,5-difluorophenyl)ethyl)-2-((3bS,4aR)-3-(difluoromethyl)-5,5-difluoro-3b,4,4a,5-tetrahydro-1H-cyclopropa[3,4]cyclopenta[1,2-c]pyrazol-1-yl)acetamide] | 160 | > 500000 |  | 
10 | CCC(C)c1nccc(-c2ccc3c(=O)n(-c4ccc(Cl)c5c(NS(C)(=O)=O)nn(C)c45)c([C@H](Cc4cc(F)cc(F)c4)NC(=O)Cn4nc(C(F)F)c5c4C(F)(F)[C@@H]4C[C@H]54)nc3c2)n1 (stereo partly drawn) [Example 70, N-((1S)-1-(7-(2-(sec-butyl)pyrimidin-4-yl)-(3P)-3-(4-chloro-1-methyl-3-(methylsulfonamido)-1H-indazol-7-yl)-4-oxo-3,4-dihydroquinazolin-2-yl)-2-(3,5-difluorophenyl)ethyl)-2-((3bS,4aR)-3-(difluoromethyl)-5,5-difluoro-3b,4,4a,5-tetrahydro-1H-cyclopropa[3,4]cyclopenta[1,2-c]pyrazol-1-yl)acetamide] | 260 | > 500000 |  | 
11 | CS(=O)(=O)Nc1nn(CC(F)F)c2c(-n3c([C@H](Cc4cc(F)cc(F)c4)NC(=O)Cn4nc(C(F)F)c5c4C(F)(F)[C@@H]4C[C@H]54)nc4cc(-c5cccc(C(F)(F)F)n5)ccc4c3=O)ccc(Cl)c12 [Example 138, N-[(1S)-1-{3-[4-chloro-1-(2,2-difluoroethyl)-3-methanesulfonamido-1H-indazol-7-yl]-4-oxo-7-(trifluoromethyppyridin-2-yl]-3,4-dihydroquinazolin-2-yl}-2-(3,5-difluorophenyl)ethyl]-2-[(2S,4R)-9-(difluoromethyl)-5,5-difluoro-7,8-diazatricyclo[4.3.0.0^2,^4]nona-1(6),8-dien-7-yl]acetamide] | 79 | > 500000 |  | 
12 | CC(C)(C)S(=O)(=O)c1cccc(-c2ccc3c(=O)n(-c4ccc(Cl)c5c(NS(=O)(=O)C6CC6)nn(CC(F)F)c45)c([C@H](Cc4cc(F)cc(F)c4)NC(=O)Cn4nc(C(F)F)c5c4C(F)(F)[C@@H]4C[C@H]54)nc3c2)c1 [Example 146, N-[(1S)-1-{3-[4-chloro-3-cyclopropanesulfonamido-1-(2,2-difluoroethyl)-1H-indazol-7-yl]-7-[3-(2-methylpropane-2-sulfonyl)phenyl]-4-oxo-3,4-dihydroquinazolin-2-yl}-2-(3,5-difluorophenyl)ethyl]-2-[(2S,4R)-9-(difluoromethyl)-5,5-difluoro-7,8-diazatricyclo[4.3.0.0^2,^4]nona-1(6),8-dien-7-yl]acetamide] |  |  | 390 | > 500000

Reference: US11541055B2, “Inhibitors of human immunodeficiency virus replication” (ViiV Healthcare UK (No. 5) LIMITED, priority 2018, dated 2023)
